Assay results published in patent US8383547B2 (priority 2005, dated 2013).

Tests used:
[1] = test system: Aspergillus parasiticus NRRL2999; format: cell-based
[2] = test system: Aspergillus parasiticus NRRL2999; format: cell-based; remark: listed apart in the source
[3] = test system: dipeptidyl aminopeptidase II (DPP II); conditions: stated as known; cited from earlier work
[4] = test system: aflatoxin-producing microorganism; conditions: Non-Patent Literature 3; cited from earlier work

Compound | Inhibition of aflatoxin production [1] | Inhibition of growth of aflatoxin-producing microorganism [2] | DPPII inhibition (known) [3] | Aflatoxin production inhibitory activity [4]
NCCCC(N)C(=O)N1CCCCC1 (stereo not drawn) [Orn-Pip] | neither Orn-Pip nor Dab-Pip inhibited aflatoxin production | not observed | strong inhibitor | 
NCC[C@H](N)C(=O)N1CCCCC1 [Dab-Pip] | neither Orn-Pip nor Dab-Pip inhibited aflatoxin production | not observed | strong inhibitor | 
dioctatin |  |  | inhibition of dipeptidyl aminopeptidase II | 
COP(=O)(OC)OC=C(Cl)Cl [dichlorvos] |  |  |  | weak
Cc1cccc2sc3nncn3c12 [tricyclazole] |  |  |  | weak
